Assay results published in US8247211B2, “Glycopeptide antibiotics” (American Cyanamid Company, priority 2001, dated 2012).
In brackets after ≈: the same amount, converted by molar mass.

Tests used:
Assay in all cases: In vitro antibacterial evaluation: minimum inhibitory concentration (MIC), broth dilution method
Type in all cases: cell-based
Enterococcus sp. = tested on: Enterococcus sp.
Summary of the method: (§1)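 Using Muller-Hinton II […] and an inoculum of 5×10^5 CFU/mL, antibiotic dilutions from 64 down to 0.06 μg/mL were tested following NCCLS M7-A2. The MIC is the lowest concentration inhibiting growth, including in methicillin-, penicillin- or vancomycin-resistant clinical isolates.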

Staphylococcus sp. = conditions: for MIC Staphylococcus aureus (ATCC 29213) / MIC Staphylococcus aureus (GC 1131) / MIC Staphylococcus aureus (GC 3051) / MIC Staphylococcus aureus (GC 3053) / MIC Staphylococcus aureus (GC 4541) / MIC Staphylococcus aureus (GC 4542) / MIC Staphylococcus aureus (GC 4544) / MIC Staphylococcus aureus (GC 4545): broth dilution, 18 hours at 35° C.
Summary of the method: as §1

Escherichia coli = tested on: Escherichia coli
Summary of the method: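 Inoculum: 5×10^5 CFU/mL. Range: 64-0.06 μg/mL. Medium: Muller-Hinton II […]; NCCLS M7-A2 broth dilution. Endpoint: lowest concentration inhibiting growth. Strains include methicillin-, penicillin- and/or vancomycin-resistant clinical isolates.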

Streptococcus sp. = tested on: Streptococcus sp.
Summary of the method: as §1

[1] = broth dilution, inoculum 5×10^5 CFU/mL, 18 hours at 35° C.

MIC Enterococcus avium (GC 4558) (Enterococcus sp.; [1]): >64 µg/mL
MIC Enterococcus faecalis (ATCC 29212) (Enterococcus sp.; [1]): >64 µg/mL
MIC Enterococcus faecalis (GC 2242) (Enterococcus sp.; [1]): >64 µg/mL
MIC Enterococcus faecalis (GC 2691) (Enterococcus sp.; [1]): >64 µg/mL
MIC Enterococcus faecalis (GC 3059) (Enterococcus sp.; [1]): >64 µg/mL
MIC Enterococcus faecalis (GC 4552) (Enterococcus sp.; [1]): >64 µg/mL
MIC Enterococcus faecalis (GC 4553) (Enterococcus sp.; [1]): >64 µg/mL
MIC Enterococcus faecalis (GC 4554) (Enterococcus sp.; [1]): >64 µg/mL
MIC Enterococcus faecalis (GC 6189) (Enterococcus sp.; [1]): >64 µg/mL
MIC Enterococcus faecium (GC 2243) (Enterococcus sp.; [1]): >64 µg/mL
MIC Enterococcus faecium (GC 4556) (Enterococcus sp.; [1]): >64 µg/mL
MIC Enterococcus faecium (GC 4557) (Enterococcus sp.; [1]): >64 µg/mL
MIC Enterococcus faecalis (ATCC 29212) (Enterococcus sp.; strain ATCC 29212): >64 µg/mL
MIC Enterococcus faecalis (GC 2242) (Enterococcus sp.; strain GC 2242): >64 µg/mL
MIC Enterococcus faecium (GC 2243) (Enterococcus sp.; strain GC 2243): >64 µg/mL
MIC Enterococcus faecalis (GC 2691) (Enterococcus sp.; strain GC 2691): >64 µg/mL
MIC Enterococcus faecalis (GC 3059) (Enterococcus sp.; strain GC 3059): >64 µg/mL
MIC Enterococcus faecalis (GC 4552) (Enterococcus sp.; strain GC 4552): >64 µg/mL
MIC Enterococcus faecalis (GC 4553) (Enterococcus sp.; strain GC 4553): >64 µg/mL
MIC Enterococcus faecalis (GC 4554) (Enterococcus sp.; strain GC 4554): >64 µg/mL
MIC Enterococcus faecium (GC 4556) (Enterococcus sp.; strain GC 4556): >64 µg/mL
MIC Enterococcus faecium (GC 4557) (Enterococcus sp.; strain GC 4557): >64 µg/mL
MIC Enterococcus avium (GC 4558) (Enterococcus sp.; strain GC 4558): >64 µg/mL
MIC Enterococcus faecalis (GC 6189) (Enterococcus sp.; strain GC 6189): >64 µg/mL
MIC Staphylococcus aureus (ATCC 29213) (Staphylococcus sp.; 5×10^5 CFU/mL): >64 µg/mL
MIC Staphylococcus aureus (GC 1131) (Staphylococcus sp.; 5×10^5 CFU/mL): >64 µg/mL
MIC Staphylococcus aureus (GC 3051) (Staphylococcus sp.; 5×10^5 CFU/mL): >64 µg/mL
MIC Staphylococcus aureus (GC 3053) (Staphylococcus sp.; 5×10^5 CFU/mL): >64 µg/mL
MIC Staphylococcus aureus (GC 4541) (Staphylococcus sp.; 5×10^5 CFU/mL): >64 µg/mL
MIC Staphylococcus aureus (GC 4542) (Staphylococcus sp.; 5×10^5 CFU/mL): >64 µg/mL
MIC Staphylococcus aureus (GC 4544) (Staphylococcus sp.; 5×10^5 CFU/mL): >64 µg/mL
MIC Staphylococcus aureus (GC 4545) (Staphylococcus sp.; 5×10^5 CFU/mL): >64 µg/mL
MIC Staphylococcus aureus (ATCC 29213) (Staphylococcus sp.; strain ATCC 29213): >64 µg/mL
MIC Staphylococcus aureus (GC 1131) (Staphylococcus sp.; strain GC 1131): >64 µg/mL
MIC Staphylococcus aureus (GC 3051) (Staphylococcus sp.; strain GC 3051): >64 µg/mL
MIC Staphylococcus aureus (GC 3053) (Staphylococcus sp.; strain GC 3053): >64 µg/mL
MIC Staphylococcus aureus (GC 4541) (Staphylococcus sp.; strain GC 4541): >64 µg/mL
MIC Staphylococcus aureus (GC 4542) (Staphylococcus sp.; strain GC 4542): >64 µg/mL
MIC Staphylococcus aureus-SMITH (GC 4543) (Staphylococcus sp.; strain GC 4543): >64 µg/mL
MIC Staphylococcus aureus (GC 4544) (Staphylococcus sp.; strain GC 4544): >64 µg/mL
MIC Staphylococcus aureus (GC 4545) (Staphylococcus sp.; strain GC 4545): >64 µg/mL
MIC Coagulase Negative Staphylococcus (GC 4547) (Staphylococcus sp.; strain GC 4547): >64 µg/mL
MIC Coagulase Negative Staphylococcus (GC 4548) (Staphylococcus sp.; strain GC 4548): >64 µg/mL
MIC Coagulase Negative Staphylococcus (GC 4549) (Staphylococcus sp.; strain GC 4549): >64 µg/mL
MIC Coagulase Negative Staphylococcus (GC 4551) (Staphylococcus sp.; strain GC 4551): >64 µg/mL
MIC Coagulase Negative Staphylococcus (GC 6257) (Staphylococcus sp.; strain GC 6257): >64 µg/mL
MIC Escherichia coli (ATCC 25922) (Escherichia coli; strain ATCC 25922): >64 µg/mL
MIC Escherichia coli (GC 4559) (Escherichia coli; strain GC 4559): >64 µg/mL
MIC Escherichi coli (GC 4560) (Escherichia coli; strain GC 4560): >64 µg/mL
MIC Streptococcus agalactiae (GC 4564) (Streptococcus sp.; [1]): 32 µg/mL (≈ 20.9 µM)
MIC Streptococcus pneumoniae (ATCC 6301) (Streptococcus sp.; [1]): 4 µg/mL (≈ 2.61 µM)
MIC Streptococcus pneumoniae (GC 1894) (Streptococcus sp.; [1]): 8 µg/mL (≈ 5.21 µM)
MIC Streptococcus pneumoniae (GC 4565) (Streptococcus sp.; [1]): 8 µg/mL (≈ 5.21 µM)
MIC Streptococcus pyogenes (GC 4563) (Streptococcus sp.; [1]): 64 µg/mL (≈ 41.7 µM)
MIC Streptococcus pneumoniae (ATCC 6301) (Streptococcus sp.; strain ATCC 6301): 4 µg/mL (≈ 2.61 µM)
MIC Streptococcus pneumoniae (GC 1894) (Streptococcus sp.; strain GC 1894): 8 µg/mL (≈ 5.21 µM)
MIC Streptococcus pyogenes (GC 4563) (Streptococcus sp.; strain GC 4563): 64 µg/mL (≈ 41.7 µM)
MIC Streptococcus agalactiae (GC 4564) (Streptococcus sp.; strain GC 4564): 32 µg/mL (≈ 20.9 µM)
MIC Streptococcus pneumoniae (GC 4565) (Streptococcus sp.; strain GC 4565): 8 µg/mL (≈ 5.21 µM)
Compound: CC(c1ccccc1)C1NC(=O)CNC(=O)C(CO)NC(=O)C(C(O)C2CNC(=N)N2C2OC(CO)C(O)C(O)C2O)NC(=O)C(C(O)C2CNC(=N)N2)NC(=O)C(Cc2ccc(OC3OC(CO)C(OC4OC5COC(c6cccc(OCc7ccc([N+](=O)[O-])cc7)c6)OC5C(O)C4O)C(O)C3O)cc2)NC1=O (stereo not drawn) [Example 182, Cyclo[glycyl-β-methylphenylalanyl-O-[4-O-[4,6-O-(3-[[(4-nitrophenyl)methoxy]benzylidene]hexopyranosyl]hexopyranosyl]tyrosyl-3-(2-iminoimidazolidin-4-yl)seryl-3-β-hexopyranosyl-2-iminoimidazolidin-4-yl)serylseryl]]
MIC Staphylococcus haemolyticus (GC 4546) (Staphylococcus sp.; strain GC 4546): >64 µg/mL
